“Also recorded” adds a separate entry of the source.
System: phosphorylated p38 (P-p38)
Test: IT substance P-evoked spinal p38 phosphorylation (Western blot)
Type: in vivo, rat
Settings: IT AS daily for five days, assessed 30 minutes after IT SP injection, compared to the MS group
Description: Yaksh et al., Nature 286: 155-157, 1980; Yaksh, Trends Pharmacol Sci 20: 329-337, 1999. […] Malmberg and Yaksh, Science 257: 1276-1279, 1992; Svensson et al., J Neurochem 86: 1534-1544, 2003. […] To investigate the contribution of p38α and p38β to SP-evoked hyperalgesia and p38 phosphorylation, spinal delivery of p38α and p38β AS and MS was carried out. Thermal withdrawal latencies was assessed after IT injection of SP and lumbar spinal cords collected immediately to compare the degree of spinal p38 phosphorylation at the hypothesized time of peak phosphorylation. IT injection of SP into the MS group produced an expected reduction of thermal withdrawal latency in comparison with IT saline injection into to vehicle treated animals (FIG. 7C). […] In contrast, IT SP-induced thermal hyperalgesia was attenuated in rats which had received p38β AS (FIG. 7E). […] Stripping and reprobing the western blot membranes confirmed that p38α protein expression was knocked down in p38α AS treated group (FIG. 7D) as well as p38β in the p38β AS group (FIG. 7F).
(A) Graph displaying paw withdrawal latency (PWL) plotted versus time. […] (B) Representative western blots showing levels of P-p38, total p38 and β-actin in lumbar spinal cord at different time points after IT injection of SP (30 nmol). IT-SP induced p38 phosphorylation peaks 30 minutes after SP injection. (C, E) Graph showing PWL assessed 15 and […] after bolus injection of IT saline or IT SP injection in rats treated with IT ACSF, MS (30 μg), p38α AS (30 fig) or p38β AS (20 μg) daily for five days. […] IT injection of MS or ACSF had no effect on IT SP-evoked thermal hyperalgesia. Each time point represents the mean ±SEM (n=4-5 per group). (D, F) Representative western blots showing the level of P-p38, p38α and p38β and β-actin protein expression assessed 30 minutes after IT SP injection.
Western blot. Prior to sacrifice, rats were deeply anesthetized and after decapitation the spinal cords were ejected from the vertebral column by a saline-filled syringe. The lumbar part of the spinal cord was immediately homogenized in extraction buffer (50 mM Tris buffer, pH 8.0, containing 0.5% Triton X-100, 150 mM NaCl, 1 mM EDTA, phosphatase and protease inhibitors) by sonication. […] After washing, the antibody-protein complexes were probed with appropriate secondary antibodies labeled with horseradish peroxidase for 1 hr at room temperature and detected with chemiluminescent reagents (SuperSignal, Pierce, Rockford, Ill.). […] Intensity of immunoreactive bands was quantified using ImageQuant software (Molecular Dynamics, Sunnyvale, Calif.). p38 immuno-positive bands were normalized relative to β-actin.

Substance | phosphorylation of spinal p38 following IT SP | phosphorylation of spinal p38 following IT SP (listed as p38 AS)
p38β AS: 20-nucleotide 2′-MOE phosphorothioate chimeric antisense GTATGTCCTCCTCGCGTGGA, beginning at position 439 in the rat p38β mRNA (all phosphorothioate, sugars by position and methylation of C not given here; 2'-MOE chimeric (gapmer) antisense) | pronounced reduction | significantly lower
p38α AS: 20-nucleotide 2′-MOE phosphorothioate chimeric antisense AGGTGCTCAGGACTCCATTT, beginning at position 1081 in the rat p38α mRNA (all phosphorothioate, sugars by position and methylation of C not given here; 2'-MOE chimeric (gapmer) antisense) | did not show a reduction; also recorded: No difference in P-p38 | 
